Laboratory results taken from US20220133753A1, “COMPOSITIONS AND METHODS USEFUL FOR TREATING DISEASES CHARACTERIZED BY INSUFFICIENT PANTOTHENATE KINASE ACTIVITY” (Comet Therapeutics, Inc., priority 2016, published 2022).
“Also recorded” adds a separate entry of the source.

Legend:
[1] = system: dPANK/fbl RNAi treated Drosophila S2 cells; test: dPANK/fbl RNA interference in Drosophila S2 cells, rescue by CoA or 4′-phosphopantetheine; type: cell-based; conditions: compound added to the medium
Experimental: Drosophila S2 Cell Culture, RNA Interference, and CoA and 4′-phosphopantetheine treatment: Drosophila Schneider's S2 cells were maintained at 25° C. in Schneider's Drosophila medium (Invitrogen) supplemented with 10% heat inactivated fetal calf serum (Gibco) and antibiotics (penicillin/streptomycin, Invitrogen) under laboratory conditions. Synthesis of RNAi constructs and RNA interference (dsRNA) treatment was carried out as described previously (Siudeja K et al, EMBO Mol Med 3, 755-766 (2011)). Non-relevant (human gene; hMAZ) dsRNA was used as control. The cells were incubated for 4 days to induce an efficient knock-down. Cells were then subcultured, with or without CoA (Sigma-Aldrich, Cat. No: C4780—which is used for all the experiments wherever stated below) or 4′-phosphopantetheine (PPanSH) at different concentrations and were maintained for additional 3 days until analysis for rescue efficiency of the compounds was performed. The stock solutions of compounds were made in sterile water and stored in −20° C. until use.
Drosophila S2 Cell Immunofluorescence Staining: For immunofluorescence Drosophila S2 cells were seeded on Poly-L-Lysine coated (Sigma-Aldrich) glass microscope slides and allowed to settle for 45 min. Cells were fixed with 3.7% formaldehyde (Sigma Aldrich) for 20 min, washed briefly with PBS+0.1% Triton-X-100 (Sigma Aldrich) and permeabilized with PBS+0.2% Triton-X-100 for 20 min. The slides were incubated in primary antibody (rabbit anti-AcLys, Cell Signaling Cat No: 9441, 1:500) to visualize histone acetylation levels in PBS+0.1% Triton-X-100 overnight and after an additional washing step in PBS+0.1% Triton-X-100 they were incubated in secondary goat anti-rabbit-Alexa488 antibody (Molecular Probes) for two hours at room temperature (RT). F-actin was detected with Rhodamin-Phalloidin (20 U/ml)(Invitrogen) and DNA by staining with DAPI (0.2 ug/ml) (Thermo Scientific). Finally the samples were mounted in 80% glycerol and analyzed using a Leica fluorescence microscope with Leica software. Adobe Photoshop and Illustrator (Adobe Systems Incorporated, San Jose, Calif., USA) were used for image assembly.

[2] = system: homozygous dPPCDC mutants and dPPCDC RNAi expressing flies; test: Drosophila dPPCDC mutant and dPPCDC RNAi flies, development, lifespan and fertility with CoA or Vitamin B5; type: in vivo, Drosophila melanogaster
Experimental: Drosophila Maintenance and Crosses: Drosophila melanogaster stocks/crosses were raised on standard cornmeal agar fly food (containing water, agar 17 g/L, sugar 54 g/L, yeast extract 26 g/L and nipagin 1.3 g/L) at 25° C. The stocks were either obtained from the Bloomington Stock Centre (Indiana University, USA), VDRC (Vienna Drosophila RNAi Collection, Vienna, Austria) or from the Exelixis Collection (Harvard Medical School) and rebalanced to generate eGFP-positive balancers. The stocks used were: w1118; dPANK/fbl1 hypomorph5,6; dPANK/fblnull (y[1] w[*]; Mi{y[+mDint2]=MIC}fbl[MI04001]/TM3, Sb[1] Ser[1], Bloomington 36941); dPPCDC mutant (w[1118], PBac{w[+mC]=WH}Ppcdc[f00839]/CyO, Bloomington 18377); UAS-dPPCDCRNAi line (VDRC 104495); dCOASY mutant (PBac{RB}Ppat-Dpck[e00492], Exelixis). The UAS-RNAi constructs were expressed ubiquitously using the Actin-Gal4 drivers (y[1] w[*]; P{w[+mC]=Act5C-GAL4}25FO1/CyO, y[+], Bloomington 4414). […]
Drosophila Life Span: One-day old adults of Drosophila homozygous mutants or RNAi-constructs expressing lines, were collected with appropriate controls and were kept on standard fly food at 25° C. with or without CoA or Vitamin B5 (Sigma) at necessary concentration (50 ul added on top of the fly food and dried). The flies were counted every 12-24 hrs and flipped to new fly food vials with or without CoA or Vitamin B5.
Drosophila Ovary Rescue Experiment: UAS-dPPCDC RNAi constructs were ubiquitously expressed under the control of Actin-Gal4. […] The vials (or plates) from the crosses (with eggs that were being laid during the 4 day period of CoA rescue) were kept for another 10 days and offspring numbers were counted after eclosion.
Drosophila Ovary dissection and staining: Drosophila ovaries were collected in cold PBS and fixed in 4% formaldehyde (from methanol-free 16% Formaldehyde Solution, Thermo Scientific) for 45 min at RT. […] Finally the samples were mounted in 80% glycerol and analyzed on a Zeiss-LSM780 NLO confocal microscope with Zeiss Zen software. […]

[3] = system: Drosophila w1118 control fly line; test: Drosophila HoPan toxicity and CoA rescue experiment (eclosion); type: in vivo; conditions: CoA added to the food of the larvae
From the text: Drosophila HoPan Toxicity and CoA Rescue Experiment: One week old w1118 flies (in the ratio 10 females and 5 males) were kept in vials containing standard fly food with or without HoPan and CoA at indicated concentrations. The flies were allowed to lay eggs for 2 days, after which the adults were discarded. The resulting offspring were allowed to develop. The numbers of flies which eclosed were counted to evaluate HoPan toxicity and CoA rescue efficiency.

CC(C)(COP(=O)(O)OP(=O)(O)OC[C@H]1O[C@@H](n2cnc3c(N)ncnc32)[C@H](O)[C@@H]1OP(=O)(O)O)[C@@H](O)C(=O)NCCC(=O)NCCS [CoA, Coenzyme A]
cell count of dPANK/fbl RNAi treated S2 cells [1]: rescued the cell count in a concentration-dependent manner
histone (protein) acetylation of dPANK/fbl RNAi treated S2 cells ([1]; immunofluorescence): rescued
egg production and fertility of females ([2]; dPPCDC RNAi expressing females): improved egg-production significantly; also recorded: produced a significant number of eggs; also recorded: produced viable eggs that resulted in offspring
lifespan with CoA ([2]; dPPCDC RNAi expressing flies, CoA added to the food, from 10 days without): 30 days
development with CoA ([2]; homozygous dPPCDC mutants, CoA added to the food): extended larval development to late pupal stage
rescue of HoPan-induced phenotype (larval lethality, eclosion rate) [3]: fully rescued
